From PMC10331583, “Control of fibrosis with enhanced safety via asymmetric inhibition of prolyl‐tRNA synthetase 1” (EMBO Molecular Medicine, 2023)
Values joined by “and” are separate entries in the source; they are usually repeats but may differ in a detail not shown here. Equal values may be shown once.

How the values were obtained:
[1] = tested on: WI‐26 VA4 cells stably expressing PARS1 FA/EA/RL mutant; experiment: Cytotoxicity assay in cells stably expressing PARS1 mutant; settings: WI-26 VA4 Flag-PARS1 FA/EA/RL
[2] = tested on: WI‐26 VA4 cells stably expressing EV (empty vector); experiment: Cytotoxicity assay in cells stably expressing EV; settings: WI-26 VA4 EV
[3] = Cytotoxicity assay in cells stably expressing EV; settings: human; for activity at 72 h, 100 µM: 100000 nM; for activity at 72 h, 300 µM: 300000 nM
[4] = tested on: C57BL/6 mice; experiment: Bleomycin‐induced lung fibrosis, preventive model; type: in vivo; settings: 3 weeks
Experimental: In a preventive model of bleomycin‐induced lung fibrosis, all experiments were conducted following the international guidelines on the ethical use of experimental animals and approved by the Institutional Animal Care and Use Committee of Aragen Bioscience (17‐0331‐M‐1). C57BL/6 mice (6–7‐week‐old, male, obtained from Simonsen Laboratories) were randomized into groups (n = 10 for each group) such that mean body weights were similar for the different groups. Oral administration of the compounds (vehicle, DWN12088, and pirfenidone) was started a day before oropharyngeal administration of 70 μl bleomycin (2 units/kg). DWN12088 (3, 10, 30 mg/kg) was treated once a day while 100 mg/kg pirfenidone was treated twice a day (200 mg/kg/day) for 3 weeks, and then the outcome was analyzed.

[5] = parameters: method as in earlier work; settings: healthy adults; ref ANZCTR ACTRN12619001239156; ClinicalTrials.gov NCT04767815, NCT04888715, NCT04888728; cited from earlier work
[6] = CellTiter‐Glo assay, screen of HF derivatives; type: cell-based; settings: human, NHLF cells
Experimental: After 24 h, the cells were incubated with various concentrations of compounds for 48 h. The level of ATP as a measure of cell viability was determined using a CellTiter‐Glo® luminescent cell viability assay kit (Promega, G7571) following the manufacturer's instructions.

[7] = tested on: LX2 cells; experiment: Determination of collagen level using 3D culture (hydroxyproline); type: cell-based; settings: Homo sapiens, LX-2, read-out: IC50 for collagen level
Experimental: To screen HF derivatives, LX2 cells were resuspended with growth medium containing 20% Matrigel (BD Bioscience, 354234) and then seeded at 1 × 10^4 cells/well on a Lipidure‐coated U bottom 96‐well plate (NOF, LCU96). After 48 h, the cells were treated with TGF‐β1 (Sigma‐Aldrich, T7039) for 24 h to mimic fibrotic conditions and then additionally incubated in the presence of various concentrations of test compounds for 48 h. To determine the level of collagen, hydroxyproline levels were measured following the manufacturer's instructions (BioVision, K555‐100). Briefly, after the cells were incubated with HCl for 3 h at 120°C, the soluble supernatant was prepared using activated charcoal (Sigma‐Aldrich, 161551). The samples were dried for 3 h at 60°C and then, incubated with chloramine T mixture for 10 min and Ehrlich's reagent for 90 min at 60°C. The level of hydroxyproline was determined by measuring the absorbance at 540 nm.

[8] = log(inhibitor) vs. response, variable slope (four parameters)
[9] = log(inhibitor) vs. response, variable slope (four parameters), concentration in nM
[10] = Cytotoxicity, % of control (single replicates, Experiment #1-#4), WI-26 VA4 EV
[11] = Cytotoxicity, % of control, average, WI-26 VA4 EV

O[C@H]1CCCN[C@@H]1CCCn1cnc2c(Cl)c(Cl)ccc21 [DWN12088]
Cytotoxicity, % of control (single replicates, Experiment #1-#4) ([1]; 10 nM, 0.01 µM): 127.65 % of control and 116.09 % of control and 111.66 % of control and 110.83 % of control and 101.75 % of control and 99.44 % of control and 110.49 % of control and 101.49 % of control
Cytotoxicity, % of control (single replicates, Experiment #1-#4) ([1]; 30 nM, 0.03 µM): 126.96 % of control and 104.11 % of control and 114.08 % of control and 105.16 % of control and 106.38 % of control and 115.03 % of control and 93.72 % of control and 92.87 % of control
Cytotoxicity, % of control (single replicates, Experiment #1-#4) ([1]; 100 nM, 0.1 µM): 127.60 % of control and 108.47 % of control and 113.70 % of control and 109.71 % of control and 111.06 % of control and 113.53 % of control and 98.60 % of control and 94.80 % of control
Cytotoxicity, % of control (single replicates, Experiment #1-#4) ([1]; 300 nM, 0.3 µM): 132.76 % of control and 113.23 % of control and 105.15 % of control and 116.43 % of control and 104.37 % of control and 100.43 % of control and 94.90 % of control and 90.64 % of control
Cytotoxicity, % of control (single replicates, Experiment #1-#4) ([1]; 1000 nM, 1 µM): 112.40 % of control and 100.20 % of control and 107.27 % of control and 121.00 % of control and 132.94 % of control and 130.17 % of control and 95.86 % of control and 86.64 % of control
Cytotoxicity, % of control (single replicates, Experiment #1-#4) ([1]; 3000 nM, 3 µM): 71.51 % of control and 74.54 % of control and 81.32 % of control and 80.03 % of control and 89.57 % of control and 88.20 % of control and 83.52 % of control
Cytotoxicity, % of control (single replicates, Experiment #1-#4) ([1]; 10000 nM, 10 µM): 63.68 % of control and 53.80 % of control and 76.80 % of control and 69.72 % of control and 64.84 % of control and 73.82 % of control and 81.37 % of control and 66.19 % of control
Cytotoxicity, % of control (single replicates, Experiment #1-#4) ([1]; 30000 nM, 30 µM): 25.76 % of control and 18.61 % of control and 17.42 % of control and 17.01 % of control and 19.68 % of control and 18.20 % of control and 14.25 % of control
Cytotoxicity, % of control (single replicates, Experiment #1-#4) ([1]; 100000 nM, 100 µM): 21.16 % of control and 22.59 % of control and 20.38 % of control and 17.48 % of control and 18.26 % of control and 18.73 % of control and 19.25 % of control
Cytotoxicity, % of control (single replicates, Experiment #1-#4) ([1]; 300000 nM, 300 µM): 1.23 % of control and 1.09 % of control and 1.22 % of control and 0.52 % of control and 1.28 % of control and 1.77 % of control and 1.38 % of control and 0.29 % of control
Cytotoxicity, % of control (single replicates, Experiment #1-#4) ([1]; 1000000 nM, 1000 µM): 0.10 % of control and -0.10 % of control and 0.29 % of control and -0.29 % of control and 0.16 % of control and -0.16 % of control and 0.22 % of control and -0.22 % of control
Cytotoxicity HillSlope (best-fit value) [1, 8]: -1.118
Cytotoxicity LogIC50 (best-fit value) [1, 9]: 4.071
Cytotoxicity, % of control (single replicates, Experiment #1-#4) ([2]; 10 nM, 0.01 µM): 181.59 % of control and 174.53 % of control and 155.63 % of control and 131.53 % of control and 90.90 % of control and 98.37 % of control and 100.27 % of control and 114.43 % of control
Cytotoxicity, % of control (single replicates, Experiment #1-#4) ([2]; 30 nM, 0.03 µM): 144.67 % of control and 129.26 % of control and 139.92 % of control and 145.06 % of control and 96.12 % of control and 96.09 % of control and 105.17 % of control and 102.77 % of control
Cytotoxicity, % of control (single replicates, Experiment #1-#4) ([2]; 100 nM, 0.1 µM): 147.51 % of control and 118.70 % of control and 139.92 % of control and 137.75 % of control and 115.49 % of control and 112.19 % of control and 121.53 % of control and 122.89 % of control
Cytotoxicity, % of control (single replicates, Experiment #1-#4) ([2]; 300 nM, 0.3 µM): 145.14 % of control and 129.72 % of control and 157.05 % of control and 115.90 % of control and 103.62 % of control and 109.27 % of control and 123.14 % of control and 114.81 % of control
Cytotoxicity, % of control (single replicates, Experiment #1-#4) ([2]; 1000 nM, 1 µM): 147.27 % of control and 102.27 % of control and 132.28 % of control and 145.77 % of control and 98.60 % of control and 107.79 % of control and 107.19 % of control and 105.61 % of control
Cytotoxicity, % of control (single replicates, Experiment #1-#4) ([2]; 3000 nM, 3 µM): 108.37 % of control and 94.06 % of control and 109.81 % of control and 125.38 % of control and 98.33 % of control and 90.23 % of control and 106.43 % of control and 103.83 % of control
Cytotoxicity, % of control (single replicates, Experiment #1-#4) ([2]; 10000 nM, 10 µM): 112.55 % of control and 107.77 % of control and 118.32 % of control and 138.37 % of control and 93.86 % of control and 92.69 % of control and 99.78 % of control and 101.69 % of control
Cytotoxicity, % of control (single replicates, Experiment #1-#4) ([2]; 30000 nM, 30 µM): 48.06 % of control and 41.00 % of control and 64.15 % of control and 50.51 % of control and 27.36 % of control and 27.48 % of control and 37.20 % of control and 42.21 % of control
Cytotoxicity, % of control (single replicates, Experiment #1-#4) ([2]; 100000 nM, 100 µM): 28.49 % of control and 29.03 % of control and 30.62 % of control and 22.10 % of control and 18.35 % of control and 21.38 % of control and 22.01 % of control
Cytotoxicity, % of control (single replicates, Experiment #1-#4) ([2]; 300000 nM, 300 µM): 1.70 % of control and 1.82 % of control and 1.26 % of control and 1.75 % of control and 1.60 % of control and 1.89 % of control and 2.00 % of control
Cytotoxicity, % of control (single replicates, Experiment #1-#4) ([2]; 1000000 nM, 1000 µM): 0.17 % of control and -0.17 % of control and 0.30 % of control and -0.30 % of control (2×) and -0.44 % of control (2×) and -0.63 % of control
Cytotoxicity HillSlope (best-fit value) [2, 8]: -1.361
Cytotoxicity LogIC50 (best-fit value) [2, 9]: 4.38
CC50 at 72 h [3]: 24 µM
IC50 at 72 h [3]: 24 µM
activity at 72 h, 100 µM [3, 10]: 29.1%
activity at 72 h, 300 µM [3, 10]: 2.25%
activity at 72 h, 0.01 µM ([3]; Cytotoxicity, % of control, average, WI-26 VA4 EV, 10 nM): 131%
activity at 72 h, 0.03 µM ([3]; Cytotoxicity, % of control, average, WI-26 VA4 EV, 30 nM): 120%
activity at 72 h, 0.1 µM ([3]; Cytotoxicity, % of control, average, WI-26 VA4 EV, 100 nM): 127%
activity at 72 h, 0.3 µM ([3]; Cytotoxicity, % of control, average, WI-26 VA4 EV, 300 nM): 125%
activity at 72 h, 1 µM ([3]; Cytotoxicity, % of control, average, WI-26 VA4 EV, 1000 nM): 118%
activity at 72 h, 3 µM ([3]; Cytotoxicity, % of control, average, WI-26 VA4 EV, 3000 nM): 105%
activity at 72 h, 10 µM ([3]; Cytotoxicity, % of control, average, WI-26 VA4 EV, 10000 nM): 108%
activity at 72 h, 30 µM ([3]; Cytotoxicity, % of control, average, WI-26 VA4 EV, 30000 nM): 42.2%
activity at 72 h, 100 µM [3, 11]: 25.1%
activity at 72 h, 300 µM [3, 11]: 1.78%
activity at 72 h, 1000 µM ([3]; Cytotoxicity, % of control, average, WI-26 VA4 EV, 1000000 nM): -0.23%
fibrotic properties (modified Ashcroft score, lung weight, collagen content in BALF) ([4]; 10 mg/kg once a day): alleviated fibrotic properties
fibrotic properties (modified Ashcroft score, lung weight, collagen content in BALF) ([4]; 30 mg/kg once a day): alleviated fibrotic properties
safety in phase 1 studies [5]: validated its safety in phase 1 studies
CC50 at 48 h [6]: > 100 µM
IC50 [7]: 0.0431 µM
